Data published in patent publication US11318134B2, “Benzamide compounds” (priority 2018, dated 2022).

Tests used:
Bcl-2 = Bcl-2 (Homo sapiens (Human), UniProt P10415); assay: Bcl-2 protein family binding assay (Bcl2scan platform), Bcl-2; settings: BIM peptide ligand, 11-point dilution, read-out: Bc1-2 Kd (nm)
Procedure: (§1) E. coli were grown to log-phase and infected with T7 phage from a frozen stock (multiplicity of infection=0.4) and incubated with shaking at 32° C. until lysis (90-150 minutes). The lysates were centrifuged (5,000×g) and filtered (0.2 μm) to remove cell debris. […] The liganded beads were blocked with excess biotin and washed with blocking buffer (SeaBlock (Pierce), 1% BSA, 0.05% Tween 20, 1 mM DTT) to remove unbound ligand and to reduce non-specific phage binding. […] Test compounds were prepared as 100× stocks in 100% DMSO. Kds were determined using an 11-point 3-fold compound dilution series with one DMSO control point. […] The compounds were then diluted directly into the assays such that the final concentration of DMSO was 0.9%. All reactions performed in polypropylene 384-well plates. Each was a final volume of 0.02 ml. […] The BCL2 concentration in the eluates was measured by qPCR. Binding constants (Kds) were calculated with a standard dose-response curve using the Hill equation:
(§2) [formula] The Hill Slope was set to −1. Curves were fitted using a non-linear least square fit with the Levenberg-Marquardt algorithm.

Bcl-XL = Bcl-XL (Homo sapiens (Human), UniProt Q07817); assay: Bcl-2 protein family binding assay (Bcl2scan platform), Bcl-XL; settings: BIM peptide ligand, 11-point dilution, read-out: Bc1-XL Kd (nm)
Chain of Bcl-XL (Q07817 whole entry): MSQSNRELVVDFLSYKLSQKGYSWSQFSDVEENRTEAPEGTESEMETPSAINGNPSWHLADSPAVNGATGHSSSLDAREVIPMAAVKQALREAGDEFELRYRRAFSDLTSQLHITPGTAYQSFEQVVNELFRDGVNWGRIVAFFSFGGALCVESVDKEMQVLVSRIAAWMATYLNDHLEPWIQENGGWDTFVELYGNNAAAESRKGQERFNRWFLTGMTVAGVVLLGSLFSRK
Procedure: as §1, §2

RS4;11 cells = assay: RS4;11 cell proliferation assay (CellTiter-Glo); assay type: cell-based; settings: Homo sapiens, RS4-11, 48 h, read-out: RS4;11 (nM), CTG IC50
Procedure: Cell proliferation was measured using the CellTiter-Glo® Luminescent Cell Viability Assay. The assay involved the addition of a single reagent (CellTiter-Glo® Reagent) directly to cells cultured in serum-supplemented medium.
Each compound evaluated was prepared as a DMSO stock solution (10 mM). Compounds were tested in duplicate on each plate, with a 10-point serial dilution curve (1:3 dilution). Compound treatment (1.0 μL) was added from the compound dilution plate to the cell plate. The highest compound concentration was 10 μM (final), with a 0.1% final DMSO concentration. Plates were then incubated at 37° C., 5% CO2. After 48 h of compound treatment for RS4;11 or 72 h for NCI-H1963, cell plates were equilibrated at rt for approximately 30 mins. An equi-volume amount of CellTiter-Glo® Reagent (40 μL) was added to each well. […] Luminescence was recorded using a Envision plate reader according to CellTiter-Glo protocol. IC50 of each compound was calculated using GraphPad Prism by nonlinear regression analysis.

Chain of Bcl-2 (P10415 whole entry): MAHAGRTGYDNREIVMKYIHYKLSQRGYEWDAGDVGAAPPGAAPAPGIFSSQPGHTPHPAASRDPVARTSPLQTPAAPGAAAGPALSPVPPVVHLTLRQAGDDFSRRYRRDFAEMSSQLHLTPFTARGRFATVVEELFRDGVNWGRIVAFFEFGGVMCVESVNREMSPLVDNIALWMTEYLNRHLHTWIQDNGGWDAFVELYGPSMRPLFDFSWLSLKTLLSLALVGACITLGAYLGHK

Compound | Kd (Bcl-2) | Kd (Bcl-XL) | IC50 (RS4;11 cells)
CN1CCC(F)(CNc2ccc(S(=O)(=O)NC(=O)c3ccc(N4CCN(CC5=C(C67CC(C)(C6)C7)CC(C)(C)CC5)CC4)cc3Oc3cnc4[nH]ccc4c3)cc2[N+](=O)[O-])CC1 [Example 13, 2-((1H-pyrrolo[2,3-b]pyridin-5-yl)oxy)-4-(4-((4,4-dimethyl-2-(3-methylbicyclo[1.1.1]pentan-1-yl)cyclohex-1-en-1-yl)methyl)piperazin-1-yl)-N-((4-(((4-fluoro-1-methylpiperidin-4-yl)methyl)amino)-3-nitrophenyl)sulfonyl)benzamide] | < 10 nM | > 100 nM | < 100 nM
CC1(C)CCC(CN2CCN(c3ccc(C(=O)NS(=O)(=O)c4ccc(NCC5CCOCC5)c([N+](=O)[O-])c4)c(Oc4cnc5[nH]ccc5c4)c3)CC2)=C(C23CC(Cl)(C2)C3)C1 [Example 1, 2-(1H-Pyrrolo[2,3-b]pyridin-5-yl-oxy)-4-(4-((2-(3-chlorobicyclo[1.1.1]pentan-1-yl)-4,4-dimethylcyclohex-1-en-yl)methyl)piperazin-1-yl)-N-(3-nitro-4-((tetrahydro-2H-pyran-4-yl)methylamino)phenylsulfonyl)benzamide] | < 10 nM | > 100 nM | < 100 nM
CC1(C)CCC(CN2CCN(c3ccc(C(=O)NS(=O)(=O)c4ccc(NCC5CC6(CCOCC6)C5)c([N+](=O)[O-])c4)c(Oc4cnc5[nH]ccc5c4)c3)CC2)=C(C23CC(C)(C2)C3)C1 [Example 11, 2-((1H-pyrrolo[2,3-b]pyridin-5-yl)oxy)-N-((4-(((7-oxaspiro[3.5]nonan-2-yl)methyl)amino)-3-nitrophenyl)sulfonyl)-4-(4-((4,4-dimethyl-2-(3-methylbicyclo[1.1.1]pentan-1-yl)cyclohex-1-en-1-yl)methyl)piperazin-1-yl)benzamide] | < 10 nM | > 100 nM | < 100 nM
CC1(C)CCC(CN2CCN(c3ccc(C(=O)NS(=O)(=O)c4ccc(NC[C@H]5CC[C@](C)(O)CC5)c([N+](=O)[O-])c4)c(Oc4cnc5[nH]ccc5c4)c3)CC2)=C(C23CC(C(F)(F)F)(C2)C3)C1 [Example 32, 2-((1H-pyrrolo[2,3-b]pyridin-5-yl)oxy)-4-(4-((4,4-dimethyl-2-(3-(trifluoromethyl)bicyclo[1.1.1]pentan-1-yl)cyclohex-1-en-1-yl)methyl)piperazin-1-yl)-N-((4-((((1r,4r)-4-hydroxy-4-methylcyclohexyl)methyl)amino)-3-nitrophenyl)sulfonyl)benzamide] | < 10 nM | > 100 nM | < 100 nM
CCC12CC(C3=C(CN4CCN(c5ccc(C(=O)NS(=O)(=O)c6ccc(OCC7(F)CCOCC7)c([N+](=O)[O-])c6)c(Oc6cnc7[nH]ccc7c6)c5)CC4)CCC(C)(C)C3)(C1)C2 [Example 26, 2-((1H-pyrrolo[2,3-b]pyridin-5-yl)oxy)-4-(4-((2-(3-ethylbicyclo[1.1.1]pentan-1-yl)-4,4-dimethylcyclohex-1-en-1-yl)methyl)piperazin-1-yl)-N-((4-((4-fluorotetrahydro-2H-pyran-4-yl)methoxy)-3-nitrophenyl)sulfonyl)benzamide] | < 10 nM | > 100 nM | < 100 nM
CC1(C)CCC(CN2CCN(c3ccc(C(=O)NS(=O)(=O)c4ccc(OCC5(F)CCOCC5)c([N+](=O)[O-])c4)c(Oc4cnc5[nH]ccc5c4)c3)CC2)=C(C23CC(C(F)(F)F)(C2)C3)C1 [Example 31, 2-((1H-pyrrolo[2,3-b]pyridin-5-yl)oxy)-4-(4-((4,4-dimethyl-2-(3-(trifluoromethyl)bicyclo[1.1.1]pentan-1-yl)cyclohex-1-en-1-yl)methyl)piperazin-1-yl)-N-((4-((4-fluorotetrahydro-2H-pyran-4-yl)methoxy)-3-nitrophenyl)sulfonyl)benzamide] | < 10 nM | > 100 nM | < 100 nM
CC1(C)CCC(CN2CCN(c3ccc(C(=O)NS(=O)(=O)c4ccc(OCC5(F)CCOCC5)c([N+](=O)[O-])c4)c(Oc4cnc5[nH]ccc5c4)c3)CC2)=C(C23CC(C)(C2)C3)C1 [Example 16, 2-((1H-pyrrolo[2,3-b]pyridin-5-yl)oxy)-4-(4-((4,4-dimethyl-2-(3-methylbicyclo[1.1.1]pentan-1-yl)cyclohex-1-en-1-yl)methyl)piperazin-1-yl)-N-((4-((4-fluorotetrahydro-2H-pyran-4-yl)methoxy)-3-nitrophenyl)sulfonyl)benzamide] | < 10 nM | > 100 nM | < 100 nM
CN1CCOC(CNc2ccc(S(=O)(=O)NC(=O)c3ccc(N4CCN(CC5=C(C67CC(C)(C6)C7)CC(C)(C)CC5)CC4)cc3Oc3cnc4[nH]ccc4c3)cc2[N+](=O)[O-])C1 (stereo not drawn) [Example 17, 2-((1H-pyrrolo[2,3-b]pyridin-5-yl)oxy)-4-(4-((4,4-dimethyl-2-(3-methylbicyclo[1.1.1]pentan-1-yl)cyclohex-1-en-1-yl)methyl)piperazin-1-yl)-N-((4-(((4-methylmorpholin-2-yl)methyl)amino)-3-nitrophenyl)sulfonyl)benzamide] | < 10 nM | 10 to 100 nM | < 100 nM
CC1(C)CCC(CN2CCN(c3ccc(C(=O)NS(=O)(=O)c4ccc(NCC5CCOCC5)c([N+](=O)[O-])c4)c(Oc4cnc5[nH]ccc5c4)c3)CC2)=C(C23CC(C(C)(F)F)(C2)C3)C1 [Example 40, 2-(1H-pyrrolo[2,3-b]pyridin-5-yloxy)-4-(4-((2-(3-(1,1-difluoroethyl)bicyclo[1.1.1]pentan-1-yl)-4,4-dimethylcyclohex-1-enyl)methyl)piperazin-1-yl)-N-(3-nitro-4-((tetrahydro-2H-pyran-4-yl)methylamino)phenylsulfonyl)benzamide] | < 10 nM | > 100 nM | < 100 nM
CCC12CC(C3=C(CN4CCN(c5ccc(C(=O)NS(=O)(=O)c6ccc(NCC7CCOCC7)c([N+](=O)[O-])c6)c(Oc6cnc7[nH]ccc7c6)c5)CC4)CCC(C)(C)C3)(C1)C2 [Example 23, 2-(1H-pyrrolo[2,3-b]pyridin-5-yloxy)-4-(4-((2-(3-ethylbicyclo[1.1.1]pentan-1-yl)-4,4-dimethylcyclohex-1-enyl)methyl)piperazin-1-yl)-N-(3-nitro-4-((tetrahydro-2H-pyran-4-yl)methylamino)phenylsulfonyl)benzamide] | < 10 nM | > 100 nM | < 100 nM
CC1(C)CCC(CN2CCN(c3ccc(C(=O)NS(=O)(=O)c4ccc(NCC5CCOCC5)c([N+](=O)[O-])c4)c(Oc4cnc5[nH]ccc5c4)c3)CC2)=C(C23CC(F)(C2)C3)C1 [Example 10, 2-(1H-pyrrolo[2,3-b]pyridin-5-yloxy)-4-(4-((2-(3-fluorobicyclo[1.1.1]pentan-1-yl)-4,4-dimethylcyclohex-1-enyl)methyl)piperazin-1-yl)-N-(3-nitro-4-((tetrahydro-2H-pyran-4-yl)methylamino)phenylsulfonyl)benzamide] | < 10 nM | > 100 nM | < 100 nM
